PubChem BioAssay (NCI)
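1) Cells in 96-well plates. 2) Compound, 48 h, 5 concentrations. 3) Linear interpolation between surrounding doses. 4) Unreached endpoint = highest concentration. GI50 marks 50% less growth. TGI denotes the concentration required for complete inhibition of growth.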

Tests used:
Experiment in all cases: NCI-60 cell line screen, 48 h
SK-MEL-5 melanoma = test system: SK-MEL-5 melanoma
DU-145 prostate = test system: DU-145 prostate
MOLT-4 leukemia = test system: MOLT-4 leukemia
OVCAR-5 ovarian = test system: OVCAR-5 ovarian
SF-539 CNS = test system: SF-539 CNS
SW-620 colon = test system: SW-620 colon
OVCAR-4 ovarian = test system: OVCAR-4 ovarian
MDA-MB-231 breast = test system: MDA-MB-231 breast
SR leukemia = test system: SR leukemia
A549 NSCLC = test system: A549 NSCLC
MDA-MB-435 = test system: MDA-MB-435
K-562 leukemia = test system: K-562 leukemia
PC-3 prostate = test system: PC-3 prostate
NCI-H226 lung = test system: NCI-H226 lung
UACC-257 melanoma = test system: UACC-257 melanoma
M14 melanoma = test system: M14 melanoma
SNB-75 CNS = test system: SNB-75 CNS
HCT-116 colon = test system: HCT-116 colon
NCI/ADR-RES ovarian = test system: NCI/ADR-RES ovarian
SN12C renal = test system: SN12C renal
MALME-3M melanoma = test system: MALME-3M melanoma
SK-OV-3 ovarian = test system: SK-OV-3 ovarian
SK-MEL-2 melanoma = test system: SK-MEL-2 melanoma
A498 renal = test system: A498 renal
HCC-2998 colon = test system: HCC-2998 colon
HL-60(TB) leukemia = test system: HL-60(TB) leukemia
BT-549 breast = test system: BT-549 breast
786-0 renal = test system: 786-0 renal
OVCAR-3 ovarian = test system: OVCAR-3 ovarian

O=c1cc(N2CCOCC2)oc2c(-c3ccc4c(c3)OCCO4)csc12
TGI (SK-MEL-5 melanoma): 2160 nM | GI50 (DU-145 prostate): 730 nM | TGI (DU-145 prostate): > 100000 nM | GI50 (MOLT-4 leukemia): 628 nM | TGI (MOLT-4 leukemia): 6240 nM | GI50 (OVCAR-5 ovarian): 445 nM | TGI (OVCAR-5 ovarian): > 62900 nM | GI50 (SF-539 CNS): 425 nM | TGI (SF-539 CNS): 3610 nM | GI50 (SW-620 colon): 978 nM | TGI (SW-620 colon): 16300 nM | GI50 (OVCAR-4 ovarian): 413 nM | TGI (OVCAR-4 ovarian): > 61900 nM | GI50 (MDA-MB-231 breast): 382 nM | TGI (MDA-MB-231 breast): 14500 nM | GI50 (SR leukemia): 519 nM | TGI (SR leukemia): 8570 nM | GI50 (A549 NSCLC): 583 nM | TGI (A549 NSCLC): 10500 nM | GI50 (MDA-MB-435): 428 nM | TGI (MDA-MB-435): 33600 nM | GI50 (K-562 leukemia): 1170 nM | TGI (K-562 leukemia): > 100000 nM | GI50 (PC-3 prostate): 319 nM | TGI (PC-3 prostate): > 80200 nM | GI50 (NCI-H226 lung): 492 nM | TGI (NCI-H226 lung): 11700 nM | GI50 (UACC-257 melanoma): 608 nM | TGI (UACC-257 melanoma): 7950 nM | GI50 (M14 melanoma): 451 nM | TGI (M14 melanoma): 4860 nM | GI50 (SNB-75 CNS): 127 nM | TGI (SNB-75 CNS): 765 nM | GI50 (HCT-116 colon): 775 nM | TGI (HCT-116 colon): 11100 nM | GI50 (NCI/ADR-RES ovarian): 590 nM | TGI (NCI/ADR-RES ovarian): 19700 nM | GI50 (SN12C renal): 484 nM | TGI (SN12C renal): > 100000 nM | GI50 (MALME-3M melanoma): 224 nM | TGI (MALME-3M melanoma): 1800 nM | GI50 (SK-OV-3 ovarian): 272 nM | TGI (SK-OV-3 ovarian): 1200 nM | GI50 (SK-MEL-2 melanoma): 798 nM | TGI (SK-MEL-2 melanoma): 5030 nM | GI50 (A498 renal): 102 nM | TGI (A498 renal): 662 nM | GI50 (HCC-2998 colon): 746 nM | TGI (HCC-2998 colon): 8790 nM | GI50 (HL-60(TB) leukemia): 298 nM | TGI (HL-60(TB) leukemia): 2890 nM | GI50 (BT-549 breast): 332 nM | TGI (BT-549 breast): 4100 nM | GI50 (786-0 renal): 352 nM | TGI (786-0 renal): 6310 nM | GI50 (OVCAR-3 ovarian): 526 nM | TGI (OVCAR-3 ovarian): 11300 nM
